In brackets after ≈: the same amount, converted by molar mass.
Assays:
[1] = molecular target: MAP kinase-interacting serine/threonine-protein kinase 1 (Homo sapiens, UniProt Q9BUB5)
Description: Inhibition of GST-tagged MNK1 (37 to 341 residues) (unknown origin) expressed in Escherichia coli BL21(DE3) using JH3 peptide as substrate preincubated for 10 mins followed by substrate and ATP addition measured after 60 mins

[2] = molecular target: MAP kinase-interacting serine/threonine-protein kinase 2 (Homo sapiens, UniProt Q9HBH9)
Description: Inhibition of GST-tagged MNK2 (72 to 385 residues) (unknown origin) expressed in Escherichia coli BL21(DE3) using JH3 peptide as substrate preincubated for 10 mins followed by substrate and ATP addition measured after 60 mins

[3] = molecular target: MAP kinase-interacting serine/threonine-protein kinase 1/2 (Homo sapiens, UniProt Q9HBH9+Q9BUB5); test: Inhibition of MNK1/2 in human HeLa cells assessed as decrease in eIF4E phosphorylation at Ser209 after 2 hrs by AlphaScreen assay; type: cell-based
[4] = Octanol-phosphate buffer partition coefficient, logD of compound at pH 7.4 by HPLC-UV analysis; type: physicochemical
[5] = Permeability of the compound by PAMPA; type: ADME; conditions: read-out: permeability
Cytochrome P450 2D6 = Cytochrome P450 2D6 (Homo sapiens, UniProt P10635); test: Inhibition of CYP2D6 in human liver microsomes using dextromethorphan as substrate preincubated for 5 mins followed by NADPH addition by LC-MS/MS analysis; type: ADME
[6] = Thermodynamic solubility of the compound at pH 4 to 7.4 pION buffer after 18 hrs by UV spectrophotometric analysis; type: physicochemical; conditions: read-out: Therm_solubility
[7] = Apparent permeability of the compound across apical side to basolateral side in human Caco2 cells by LC-MS/MS analysis; type: ADME, cell-based; conditions: Caco-2
[8] = Efflux ratio of apparent permeability in human Caco2 cells by LC-MS/MS analysis; type: ADME, cell-based; conditions: Caco-2
Cytochrome P450 3A4 = Cytochrome P450 3A4 (Homo sapiens, UniProt P08684)
Description: Inhibition of CYP3A4 in human liver microsomes using midazolam as substrate preincubated for 5 mins followed by NADPH addition measured after 5 mins by LC-MS/MS analysis

in vitro [9] = conditions: human, liver microsomes
Description: Half life in human liver microsomes at 1 uM in presence of NADPH by LC-MS/MS analysis

in vitro [10] = conditions: mouse, liver microsomes
Description: Half life in mouse liver microsomes at 1 uM in presence of NADPH by LC-MS/MS analysis

[11] = molecular target: Dual specificity mitogen-activated protein kinase kinase; MEK1/2 (Homo sapiens) (UniProt P36507+Q02750); test: Inhibition of MEK (unknown origin) at 1 uM by KINOMEscan assay relative to control; type: protein assay
[12] = system: Tyrosine-protein kinase ABL1 (Homo sapiens), P00519 [E255K]; test: Inhibition of human ABL1 E255K mutant (S229 to K512 residues) expressed in mammalian expression system at 1 uM by KINOMEscan assay relative to control
[13] = molecular target: Tyrosine-protein kinase ABL1 (Homo sapiens) (UniProt P00519); test: Inhibition of human ABL1 (S229 to K512 residues) expressed in mammalian expression system at 1 uM by KINOMEscan assay relative to control
[14] = molecular target: Dual specificity mitogen-activated protein kinase kinase 1 (Homo sapiens) (UniProt Q02750); test: Inhibition of human MEK1 (M1 to V393 residues) expressed in mammalian expression system at 1 uM by KINOMEscan assay relative to control
[15] = molecular target: Dual specificity mitogen-activated protein kinase kinase 2 (Homo sapiens) (UniProt P36507); test: Inhibition of human MEK2 (M1 to V400 residues) expressed in mammalian expression system at 1 uM by KINOMEscan assay relative to control
[16] = molecular target: Proto-oncogene tyrosine-protein kinase receptor Ret (Homo sapiens) (UniProt P07949); test: Inhibition of human RET (E713 to D1014 residues) expressed in bacterial expression system at 1 uM by KINOMEscan assay relative to control
[17] = Protein binding in human plasma at […] after 5 hrs by LC-MS/MS analysis; type: ADME, cell-free; conditions: read-out: PPB (converted)
[18] = Protein binding in mouse plasma at […] after 5 hrs by LC-MS/MS analysis; type: ADME, cell-free; conditions: read-out: PPB (converted)
[19] = AUClast in CD-1 mouse at 5 mg/kg, po administered via gavage as single dose by LC-MS/MS analysis; type: ADME, organism-based; set-up: dose 5 mg/kg, time 0 - last, route oral; conditions: in vivo
[20] = Cmax in CD-1 mouse at 5 mg/kg, po administered via gavage as single dose by LC-MS/MS analysis; type: ADME, organism-based; set-up: dose 5 mg/kg, route oral; conditions: in vivo

Chain of MAP kinase-interacting serine/threonine-protein kinase 2 (Q9HBH9 whole entry): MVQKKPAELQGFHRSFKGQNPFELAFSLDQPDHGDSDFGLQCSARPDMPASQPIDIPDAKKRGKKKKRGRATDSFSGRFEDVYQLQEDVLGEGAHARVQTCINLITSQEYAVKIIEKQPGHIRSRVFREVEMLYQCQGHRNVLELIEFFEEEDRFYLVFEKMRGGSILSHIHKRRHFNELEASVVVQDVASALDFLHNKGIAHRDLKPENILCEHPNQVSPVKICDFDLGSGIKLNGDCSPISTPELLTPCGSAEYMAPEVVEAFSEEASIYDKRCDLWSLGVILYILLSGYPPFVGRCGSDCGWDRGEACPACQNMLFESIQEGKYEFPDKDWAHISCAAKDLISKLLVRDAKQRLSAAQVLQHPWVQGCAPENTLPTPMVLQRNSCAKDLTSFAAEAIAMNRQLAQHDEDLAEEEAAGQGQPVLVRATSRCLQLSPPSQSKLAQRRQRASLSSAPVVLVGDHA
Chain of MAP kinase-interacting serine/threonine-protein kinase 1 (Q9BUB5 whole entry): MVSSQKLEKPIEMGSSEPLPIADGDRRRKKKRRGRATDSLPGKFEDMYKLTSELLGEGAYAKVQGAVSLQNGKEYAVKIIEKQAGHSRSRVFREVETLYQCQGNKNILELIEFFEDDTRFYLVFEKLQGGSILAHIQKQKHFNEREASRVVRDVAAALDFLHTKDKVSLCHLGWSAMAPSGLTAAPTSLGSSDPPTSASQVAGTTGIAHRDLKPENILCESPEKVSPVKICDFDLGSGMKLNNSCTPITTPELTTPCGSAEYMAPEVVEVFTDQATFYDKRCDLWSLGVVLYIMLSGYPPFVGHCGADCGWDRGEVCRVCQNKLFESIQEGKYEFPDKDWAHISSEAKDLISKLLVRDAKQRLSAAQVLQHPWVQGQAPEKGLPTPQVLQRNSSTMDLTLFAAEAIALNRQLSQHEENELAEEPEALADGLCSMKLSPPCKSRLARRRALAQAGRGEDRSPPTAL
Chain of Cytochrome P450 2D6 (P10635 whole entry): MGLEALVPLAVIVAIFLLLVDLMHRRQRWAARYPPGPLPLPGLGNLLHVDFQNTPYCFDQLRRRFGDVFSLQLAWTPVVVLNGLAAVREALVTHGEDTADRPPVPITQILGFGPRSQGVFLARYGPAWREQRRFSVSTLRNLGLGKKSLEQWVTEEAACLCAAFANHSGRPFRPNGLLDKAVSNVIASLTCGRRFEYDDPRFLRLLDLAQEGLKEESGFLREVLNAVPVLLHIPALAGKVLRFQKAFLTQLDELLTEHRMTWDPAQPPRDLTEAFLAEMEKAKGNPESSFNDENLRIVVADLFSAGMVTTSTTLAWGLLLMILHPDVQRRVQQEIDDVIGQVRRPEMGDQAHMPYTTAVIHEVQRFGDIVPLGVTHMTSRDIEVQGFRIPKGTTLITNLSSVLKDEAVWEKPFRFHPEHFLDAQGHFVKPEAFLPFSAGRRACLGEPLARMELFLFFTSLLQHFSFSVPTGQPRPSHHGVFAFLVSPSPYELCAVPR
Chain of Cytochrome P450 3A4 (P08684 whole entry): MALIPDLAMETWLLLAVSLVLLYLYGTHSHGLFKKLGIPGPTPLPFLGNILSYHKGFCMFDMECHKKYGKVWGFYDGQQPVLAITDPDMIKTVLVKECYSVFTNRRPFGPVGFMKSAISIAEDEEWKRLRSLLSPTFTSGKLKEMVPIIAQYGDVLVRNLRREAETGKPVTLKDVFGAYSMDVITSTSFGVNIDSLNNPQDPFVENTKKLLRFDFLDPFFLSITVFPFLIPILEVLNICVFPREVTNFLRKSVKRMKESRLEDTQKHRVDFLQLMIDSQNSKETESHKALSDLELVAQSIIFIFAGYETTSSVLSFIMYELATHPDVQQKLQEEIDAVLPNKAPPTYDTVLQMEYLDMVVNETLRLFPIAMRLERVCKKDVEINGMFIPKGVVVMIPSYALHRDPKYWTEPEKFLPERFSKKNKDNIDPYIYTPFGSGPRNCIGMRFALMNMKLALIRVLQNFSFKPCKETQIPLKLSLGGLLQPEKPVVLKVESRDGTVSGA
Chain of Dual specificity mitogen-activated protein kinase kinase 1 (Homo sapiens) (Q02750 whole entry, the tested form may be a part): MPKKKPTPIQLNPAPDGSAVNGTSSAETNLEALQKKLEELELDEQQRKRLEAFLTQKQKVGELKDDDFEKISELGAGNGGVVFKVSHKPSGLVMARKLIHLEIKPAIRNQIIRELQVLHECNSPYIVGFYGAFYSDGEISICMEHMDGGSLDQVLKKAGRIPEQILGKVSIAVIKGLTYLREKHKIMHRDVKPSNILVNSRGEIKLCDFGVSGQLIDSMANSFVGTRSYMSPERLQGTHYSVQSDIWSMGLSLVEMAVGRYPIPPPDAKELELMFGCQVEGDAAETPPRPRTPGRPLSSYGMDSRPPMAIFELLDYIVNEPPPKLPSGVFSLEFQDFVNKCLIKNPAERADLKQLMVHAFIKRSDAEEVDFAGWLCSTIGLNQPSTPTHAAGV
Chain of Tyrosine-protein kinase ABL1 (Homo sapiens) (P00519 whole entry, the tested form may be a part): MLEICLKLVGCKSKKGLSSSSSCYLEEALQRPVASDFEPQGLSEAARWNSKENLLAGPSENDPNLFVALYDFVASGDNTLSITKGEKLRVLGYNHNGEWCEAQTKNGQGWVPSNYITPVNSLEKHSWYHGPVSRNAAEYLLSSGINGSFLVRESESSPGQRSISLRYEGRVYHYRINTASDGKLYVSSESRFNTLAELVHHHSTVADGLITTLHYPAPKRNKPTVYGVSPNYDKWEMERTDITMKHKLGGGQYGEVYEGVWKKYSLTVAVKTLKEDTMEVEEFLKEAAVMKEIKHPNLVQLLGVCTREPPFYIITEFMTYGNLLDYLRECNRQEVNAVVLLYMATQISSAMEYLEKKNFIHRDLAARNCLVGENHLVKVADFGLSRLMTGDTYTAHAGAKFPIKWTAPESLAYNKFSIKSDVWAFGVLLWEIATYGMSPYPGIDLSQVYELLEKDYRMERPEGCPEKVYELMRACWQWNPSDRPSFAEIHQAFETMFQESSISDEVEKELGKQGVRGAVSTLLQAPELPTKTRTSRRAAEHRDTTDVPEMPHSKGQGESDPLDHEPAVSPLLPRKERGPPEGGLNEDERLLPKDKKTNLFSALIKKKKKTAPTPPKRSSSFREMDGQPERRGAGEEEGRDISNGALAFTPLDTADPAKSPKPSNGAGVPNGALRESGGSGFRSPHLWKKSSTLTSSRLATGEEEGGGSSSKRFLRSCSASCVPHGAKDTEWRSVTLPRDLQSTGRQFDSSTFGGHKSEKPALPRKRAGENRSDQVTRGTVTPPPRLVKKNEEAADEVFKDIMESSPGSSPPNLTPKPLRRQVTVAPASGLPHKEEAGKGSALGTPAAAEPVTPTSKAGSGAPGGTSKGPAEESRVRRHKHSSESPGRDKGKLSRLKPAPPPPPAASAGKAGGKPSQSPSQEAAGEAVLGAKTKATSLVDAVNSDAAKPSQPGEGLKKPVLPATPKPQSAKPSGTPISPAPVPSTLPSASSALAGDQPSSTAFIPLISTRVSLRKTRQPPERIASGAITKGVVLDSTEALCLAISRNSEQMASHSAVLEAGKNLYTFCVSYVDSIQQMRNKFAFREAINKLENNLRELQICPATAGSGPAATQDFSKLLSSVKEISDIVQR
Chain of Tyrosine-protein kinase ABL1 (Homo sapiens), P00519 [E255K] (P00519 whole entry E255K, the tested form may be a part): as the sequence (P00519 whole entry, the tested form may be a part) above, with E255K counted along it
Chain of Dual specificity mitogen-activated protein kinase kinase 2 (Homo sapiens) (P36507 whole entry, the tested form may be a part): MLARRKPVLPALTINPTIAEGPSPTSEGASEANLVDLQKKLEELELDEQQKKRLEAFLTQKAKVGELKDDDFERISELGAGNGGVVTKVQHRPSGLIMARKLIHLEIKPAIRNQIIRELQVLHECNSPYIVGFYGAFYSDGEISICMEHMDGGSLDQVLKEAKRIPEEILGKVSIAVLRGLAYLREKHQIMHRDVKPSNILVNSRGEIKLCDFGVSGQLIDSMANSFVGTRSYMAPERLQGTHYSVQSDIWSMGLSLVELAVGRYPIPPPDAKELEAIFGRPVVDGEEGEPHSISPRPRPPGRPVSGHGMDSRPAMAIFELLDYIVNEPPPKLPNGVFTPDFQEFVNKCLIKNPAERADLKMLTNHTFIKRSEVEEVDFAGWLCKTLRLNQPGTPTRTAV

Row | Structure (SMILES) | IC50 [1] [nM] | IC50 [2] [nM] | IC50 [3] [nM] | logD [4] | Papp [5] [×10⁻⁶ cm/s] | solubility thermodynamic at 18 h [6] [µg/mL] | further results
1 | O=C(Nc1cn2c(-c3ccc(O)cc3)cnc2cn1)c1ccccc1 | 3350 | 1080 |  |  |  |  | 
2 | N#Cc1ccc(-c2cnc3cnc(-c4ccc(C(=O)N5CCOCC5)cc4)cn23)cc1 | 570 | 454 | 748 | 1.77 | 43.1 | 11.1 (≈ 27.1 µM) | IC50 (Cytochrome P450 2D6): > 20000 nM; Papp A→B [7]: 17.9 ×10⁻⁶ cm/s; efflux ratio [8]: 1.73; IC50 (Cytochrome P450 3A4): > 20000 nM; half-life at 1 µM (in vitro [9]): > 60 min; half-life at 1 µM (in vitro [10]): > 60 min
3 | CN1CCN(C(=O)c2ccc(-c3cn4c(-c5ccc(C(=O)NO)cc5)cnc4cn3)cc2)CC1 | 60 | 31 | > 2500 |  |  |  | 
4 | O=C(c1ccc(-c2cn3c(-c4ccc(O)cc4)cnc3cn2)cc1)N1CCOCC1 | 125 | 113 | 130 | 2.21 | 50.2 | 11.5 (≈ 28.7 µM) | 
5 | Nc1ncnc2[nH]nc(Nc3ccc(F)cc3)c12 |  |  |  |  |  |  | inhibition [11]: > 99%; inhibition [12]: > 99%; inhibition [13]: > 99%; inhibition [14]: > 99%; inhibition [15]: > 99%; inhibition [16]: > 99%
6 | CN1CCN(C(=O)c2ccc(-c3cn4c(-c5ccccc5O)cnc4cn3)cc2)CC1 | 9500 | 5170 |  |  |  |  | 
7 | CN1CCN(C(=O)c2ccc(-c3ccc4ncc(-c5ccc(C#N)cc5)n4n3)cc2)CC1 | 20 | 25 | 326 | 2.82 | 25 | 86 (≈ 204 µM) | IC50 (Cytochrome P450 2D6): > 20000 nM; Papp A→B [7]: 14.6 ×10⁻⁶ cm/s; efflux ratio [8]: 4.84; fraction unbound at 5 h [17]: 0.001; fraction unbound at 5 h [18]: 0.041; IC50 (Cytochrome P450 3A4): > 20000 nM; half-life at 1 µM (in vitro [9]): 17 min; half-life at 1 µM (in vitro [10]): 23 min
8 | NC(=O)c1ccc(-c2cn3c(-c4ccc(O)cc4)cnc3cn2)cc1 | 310 | 193 | 1080 | 2.03 | 22.7 |  | IC50 (Cytochrome P450 2D6): > 20000 nM; IC50 (Cytochrome P450 3A4): > 20000 nM; half-life at 1 µM (in vitro [9]): 60 min; half-life at 1 µM (in vitro [10]): 46 min
9 | CN1CCN(C(=O)c2ccc(-c3cn4c(-c5ccc(C(=O)O)cc5)cnc4cn3)cc2)CC1 | 700 | 355 | > 2500 | -1.37 | 0.1 | > 22 | 
10 | CN(C)C1CCN(C(=O)c2ccc(-c3cn4c(-c5ccc(C#N)cc5)cnc4cn3)cc2)CC1 | 238 | 143 | 640 | 0.73 | 64.7 | > 45 | IC50 (Cytochrome P450 2D6): > 20000 nM; Papp A→B [7]: 1.14 ×10⁻⁶ cm/s; efflux ratio [8]: 7.57; IC50 (Cytochrome P450 3A4): > 20000 nM; half-life at 1 µM (in vitro [9]): > 60 min; half-life at 1 µM (in vitro [10]): > 60 min
11 | CN1CCN(C(=O)c2ccc(-c3cn4c(-c5ccc(C(F)F)cc5)cnc4cn3)cc2)CC1 | 369 | 336 | 1630 | 2.55 | 76.2 | 66.9 (≈ 150 µM) | 
12 | CN1CCN(C(=O)c2ccc(-c3cn4c(-c5cccc(O)c5)cnc4cn3)cc2)CC1 | 1300 | 742 | 1330 | 2.31 | 33.2 | 116 (≈ 281 µM) | 
13 | CN1CCN(C(=O)c2ccc(-c3cn4c(-c5ccc(C(F)(F)F)cc5)cnc4cn3)cc2)CC1 | 574 | 389 | 1990 | 2.95 | 87.4 | 90.4 (≈ 194 µM) | 
14 | N#Cc1ccc(-c2cnc3ccc(-c4ccc(C(=O)N5CCNCC5)cc4)nn23)cc1 | 16 | 26 | 220 | 2 | 45.8 | 115 (≈ 282 µM) | Papp A→B [7]: 1.13 ×10⁻⁶ cm/s; efflux ratio [8]: 29.9; IC50 (Cytochrome P450 3A4): 5600 nM; half-life at 1 µM (in vitro [9]): > 60 min; half-life at 1 µM (in vitro [10]): 42 min
15 | CN1CCN(C(=O)c2ccc(-c3cn4c(-c5ccccc5)cnc4cn3)cc2)CC1 | 2680 | 1430 | 1920 |  |  |  | 
16 | CC(=O)N1CCN(C(=O)c2ccc(-c3cn4c(-c5ccc(O)cc5)cnc4cn3)cc2)CC1 | 224 | 160 | > 2500 | 1.68 | 2.82 | 144 (≈ 326 µM) | 
17 | CN1CCN(C(=O)c2ccc(-c3cn4c(-c5ccc(C(N)=O)cc5)cnc4cn3)cc2)CC1 | 294 | 187 | > 2500 | 0.98 | 1.78 | 126 (≈ 286 µM) | 
18 | CN1CCN(C(=O)c2ccc(-c3ccc4ncc(-c5ccc(C#N)cc5)n4c3)cc2)CC1 | 84 | 72 | 229 | 2.48 | 81.9 | 137 (≈ 325 µM) | IC50 (Cytochrome P450 2D6): > 20000 nM; Papp A→B [7]: 5.43 ×10⁻⁶ cm/s; efflux ratio [8]: 4.84; fraction unbound at 5 h [17]: 0.003; fraction unbound at 5 h [18]: 0.0967; IC50 (Cytochrome P450 3A4): 3900 nM; half-life at 1 µM (in vitro [9]): 20 min; half-life at 1 µM (in vitro [10]): 11 min
19 | CN(C)C1CCN(C(=O)c2ccc(-c3ccc4ncc(-c5ccc(C#N)cc5)n4n3)cc2)CC1 | 9 | 11 | 431 | 2.19 | 75.3 | 148 (≈ 328 µM) | Papp A→B [7]: 3 ×10⁻⁶ cm/s; efflux ratio [8]: 13.3; AUC(0-t) [19]: 347 ng·h/mL; Cmax [20]: 69 ng/mL; half-life at 1 µM (in vitro [9]): 47 min; half-life at 1 µM (in vitro [10]): > 60 min
20 | CC(=O)Nc1cn2c(-c3ccc(O)cc3)cnc2cn1 | 789 | 515 | > 2500 |  |  |  | 
21 | Oc1ccc(-c2cnc3cnc(-c4ccccc4)cn23)cc1 | 528 | 415 | 819 |  |  |  | 
22 | CN1CCN(C(=O)c2ccc(-c3cn4c(-c5ccc(Cl)cc5)cnc4cn3)cc2)CC1 | 331 | 217 | 759 | 2.96 | 71.3 | 118 (≈ 273 µM) | 
23 | Cc1ccc(-c2cnc3cnc(-c4ccc(C(=O)N5CCN(C)CC5)cc4)cn23)cc1 | 600 | 410 | 1210 |  |  |  | 
24 | CN1CCN(C(=O)c2ccc(-c3cn4c(-c5ccc(O)cc5)cnc4cn3)cc2)CC1 | 284 | 140 | 189 | 2.25 | 34.7 | 114 (≈ 276 µM) | 
